# Data as given in US7449488B2, “Pyrazolopyrimidines as protein kinase inhibitors” (priority 2002, dated 2008).
# Biological target: T1, CDK2 (cyclin A or E-dependent; cyclin-CDK2 complexes) (Homo sapiens, UniProt P24941)
# T1 construct: made in house; host or cells: SF9 insect cells (baculovirus)
# Experiment: CDK2 in vitro kinase assay (cyclin A or E-dependent), SPA
# Assay type: biochemical
row,SMILES,IC50 [µM]
1,CCc1cn2ncc(Br)c2nc1C,0.1
2,Cc1nc2c(Br)cnn2cc1CCO,0.3
3,OCC[C@@H]1CCCCN1c1ccn2ncc(Br)c2n1,0.03
